Measured values from ChEMBL document CHEMBL1833847, “Identification of potent c-Src inhibitors strongly affecting the proliferation of human neuroblastoma cells” (Bioorg Med Chem Lett, 2011).
Converted amounts (≈) assume the structure as drawn. Values belong to the compound of their own block, whether it stands above or below them. The source made the active and inactive calls. The rule behind the calls is not given here.

Legend:
[1] = target: T1, Tyrosine-protein kinase ABL1 (Homo sapiens, UniProt P00519); test: Inhibition human recombinant Abl using Abtide peptide substrate at 100 uM in presence of [gamma-32P]-ATP
[2] = target: Focal adhesion kinase 1 (Homo sapiens, UniProt Q05397)
Description: Inhibition human recombinant FAK using Poly(Glu,Tyr) substrate in presence of [gamma-32P]-ATP

[3] = target: Tyrosine-protein kinase HCK (Homo sapiens, UniProt P08631); test: Inhibition human recombinant HcK using KVEKIGEGTYGVVYK peptide substrate in presence of [gamma-32P]-ATP
[4] = tested on: HS27; test: Antiproliferative activity against human HS27 cells assessed as retardation in proliferation rate at 10 uM after 72 hrs by XTT assay; type: cell-based; details: hs27, 72 h
[5] = target: Serine/threonine-protein kinase pim-1 (Homo sapiens, UniProt P11309); test: Inhibition human recombinant Pim1 using KKRNRLTLTV peptide substrate in presence of [gamma-32P]-ATP
[6] = tested on: SH-SY5Y; test: Antiproliferative activity against human SH-SY5Y cells assessed as cell viability at 0.01 to 10 uM by XTT assay; type: functional, cell-based; details: TDE = time-dependent effect
[7] = target: T2, Receptor-type tyrosine-protein kinase FLT3 (Homo sapiens, UniProt P36888)
T2 sequence (P36888 whole entry): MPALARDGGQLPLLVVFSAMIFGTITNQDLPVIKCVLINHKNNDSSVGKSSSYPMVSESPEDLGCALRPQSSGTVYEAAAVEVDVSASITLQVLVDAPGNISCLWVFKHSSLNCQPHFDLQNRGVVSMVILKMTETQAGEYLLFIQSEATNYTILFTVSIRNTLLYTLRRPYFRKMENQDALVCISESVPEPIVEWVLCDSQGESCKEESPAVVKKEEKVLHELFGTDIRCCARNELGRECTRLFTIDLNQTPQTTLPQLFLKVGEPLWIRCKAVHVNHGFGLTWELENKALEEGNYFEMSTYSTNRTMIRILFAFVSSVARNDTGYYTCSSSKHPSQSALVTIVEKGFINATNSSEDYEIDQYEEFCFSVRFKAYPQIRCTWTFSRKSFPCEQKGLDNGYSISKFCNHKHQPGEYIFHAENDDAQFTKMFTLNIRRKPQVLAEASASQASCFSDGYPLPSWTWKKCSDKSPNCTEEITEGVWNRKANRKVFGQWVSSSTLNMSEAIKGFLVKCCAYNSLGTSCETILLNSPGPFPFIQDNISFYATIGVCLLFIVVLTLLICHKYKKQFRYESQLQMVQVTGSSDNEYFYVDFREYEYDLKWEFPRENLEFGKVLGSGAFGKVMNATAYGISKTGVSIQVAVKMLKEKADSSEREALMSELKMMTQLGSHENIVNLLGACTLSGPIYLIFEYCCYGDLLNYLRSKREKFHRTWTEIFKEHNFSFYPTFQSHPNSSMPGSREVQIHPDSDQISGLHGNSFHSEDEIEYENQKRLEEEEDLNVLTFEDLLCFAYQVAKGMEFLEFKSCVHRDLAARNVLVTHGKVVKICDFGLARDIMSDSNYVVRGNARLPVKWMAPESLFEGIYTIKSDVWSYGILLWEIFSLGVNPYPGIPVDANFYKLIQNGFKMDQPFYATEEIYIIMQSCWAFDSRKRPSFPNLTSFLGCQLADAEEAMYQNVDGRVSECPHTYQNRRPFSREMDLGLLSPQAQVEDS
Description: Inhibition human recombinant FLT3 using Poly(Ala,Glu,Lys,Tyr)peptide substrate in presence of [gamma-32P]-ATP

[8] = tested on: SH-SY5Y; test: Antiproliferative activity against human SH-SY5Y cells assessed as cell viability after 72 hrs by XTT assay
[9] = tested on: SH-SY5Y; test: cells; details: Homo sapiens, 72 h
[10] = target: Proto-oncogene tyrosine-protein kinase Src (Homo sapiens, UniProt P12931); test: Inhibition human recombinant cSRC using KVEKIGEGTYGVVYK peptide substrate in presence of [gamma-32P]-ATP
[11] = Aqueous solubility of the compound after 24 to 36 hrs by LC-MS-MS assay; type: physicochemical; details: buffer
[12] = Metabolic stability in human liver microsomes at 50 uM at pH 7.4 using NADPH by LC-UV-MS method; type: ADME, Microsome; details: read-out: Stability
[13] = Permeability of the compound at pH 7.4 after 5 hrs using porcine polar brain lipid by PAMPA-BBB assay; type: ADME; details: pig; for Papp at 5 h: PAMPA, pH 7.4, read-out: permeability
[14] = tested on: SH-SY5Y; test: Antiproliferative activity against human SH-SY5Y cells assessed as growth reduction at 10 uM after 72 hrs; type: functional; design: scale not given: the % may be the effect or the level left
[15] = target: T1, Tyrosine-protein kinase ABL1
Description: Inhibition human recombinant Abl using Abtide peptide substrate in presence of [gamma-32P]-ATP

Structure (SMILES): Clc1cccc(Nc2ncnc3c2cnn3CCc2ccccc2)c1
inhibition [1]: inactive

Structure (SMILES): CC(Cn1ncc2c(NCc3ccccc3)ncnc21)c1ccccc1 (centres undefined)
inhibition [1]: inactive

Structure (SMILES): CC(Cn1ncc2c(NCc3ccc(F)cc3)ncnc21)c1ccccc1 (centres undefined)
inhibition [1]: inactive

Structure (SMILES): CC(C)(C)n1nc(-c2ccc(Cl)cc2)c2c(N)ncnc21
IC50 [9]: 6.1 µM

Structure (SMILES): ClC(Cn1ncc2c(NCc3ccccc3)ncnc21)c1ccccc1 (centres undefined)
Ki [15]: 0.37 µM | Ki [10]: 3 µM

Structure (SMILES): CC(Cn1ncc2c(NCc3cccc(F)c3)ncnc21)c1ccccc1 (centres undefined)
inhibition [1]: inactive

Structure (SMILES): CSc1nc(Nc2cccc(Cl)c2)c2cnn(CCc3ccccc3)c2n1
Ki [3]: 1.72 µM | Activity [4]: Toxic | Ki [5]: 6.5 µM | Activity [6]: tde | remaining at 50 µM [12]: 99% | Papp at 5 h [13]: 3.43 ×10⁻⁶ cm/s | inhibition [1]: inactive | Ki [10]: 0.09 µM

Structure (SMILES): CC(Cn1ncc2c(Nc3cccc(Cl)c3)ncnc21)c1ccccc1 (centres undefined)
inhibition [1]: inactive

Structure (SMILES): CC(Cn1ncc2c(NCc3ccccc3F)ncnc21)c1ccccc1 (centres undefined)
inhibition [1]: inactive

Continued, in another order:

Ki [2]: Not Active | Ki [3]: 5 µM | Ki [5]: 6.6 µM | Ki [7]: Not Active | inhibition [1]: inactive | IC50 [9]: 0.33 µM | Ki [10]: 0.025 µM
Structure (SMILES): CSc1nc(Nc2cccc(Cl)c2)c2cnn(CC(C)c3ccccc3)c2n1 (centres undefined)
Activity [4]: Toxic | Activity [6]: tde | Activity [8]: Dose-dependent effect

inhibition [1]: inactive
Structure (SMILES): CSc1nc(NCc2ccccc2)c2cnn(CC(C)c3ccccc3)c2n1 (centres undefined)

solubility [11]: < 0.01 µg/mL | remaining at 50 µM [12]: 95% | permeability ([13]; pampa, pH 7.4, 5 h): 1.48 ×10⁻⁶ cm/s | IC50 [9]: 0.8 µM
Structure (SMILES): CSc1nc(Nc2cccc(Br)c2)c2cnn(CC(C)c3ccccc3)c2n1 (centres undefined)
Activity [4]: Toxic | Activity [6]: tde | Activity [8]: Dose-dependent effect

solubility [11]: 0.046 µg/mL (≈ 0.107 µM) | remaining at 50 µM [12]: 91% | Papp at 5 h [13]: 5.66 ×10⁻⁶ cm/s | Ki [10]: 0.7 µM
Structure (SMILES): CSc1nc(Nc2cccc(Cl)c2)c2cnn(CC(Cl)c3ccccc3)c2n1 (centres undefined)
Activity [14]: 75%

Ki [2]: Not Active | Ki [3]: 3.87 µM | Ki [5]: 11.5 µM | Ki [7]: Not Active | inhibition [1]: inactive | IC50 [9]: 0.73 µM | Ki [10]: 0.025 µM
Structure (SMILES): CSc1nc(Nc2ccccc2)c2cnn(CC(C)c3ccccc3)c2n1 (centres undefined)
Activity [4]: Toxic | Activity [6]: tde
